Measurements as given in publication PMC9821907, “Synthesis and Antiprotozoal Activity of Azabicyclo-Nonane Pyrimidine Hybrids” (Molecules, 2022).
Like-named read-outs stand apart in the source and are kept apart here.

Columns and labels:
P. falciparum K1 [1] = test: In vitro microplate 3H-hypoxanthine incorporation assay against P. falciparum K1; format: cell-based, Plasmodium falciparum; details: resistant to chloroquine, sulfadoxine and pyrimethamine, average of four determinations, read-out: P. falciparum K1 IC50
Experimental: (§1) Compounds were tested for their activities against Plasmodium falciparum NF54 (sensitive to chloroquine) and Trypanosoma brucei rhodesiense STIB900, via serial dilution assays. Furthermore, selected compounds were tested against the K1 strain of Plasmodium falciparum (resistant against chloroquine, sulfadoxine and pyrimethamine). Their cytotoxicity was determined with rat skeletal myoblasts (L-6 cells).
(§2) In vitro activity against erythrocytic stages of P. falciparum was determined using a ^3H-hypoxanthine incorporation assay using the drug sensitive NF54 strain [27] or the chloroquine- and pyrimethamine-resistant K1 strain [28]. Compounds were dissolved in DMSO at 10 mg/mL and further diluted in medium before being added to parasite cultures incubated in RPMI 1640 medium without hypoxanthine, supplemented with HEPES (5.94 g/L), NaHCO3 (2.1 g/L), neomycin (100 U/mL), Albumax® (5 g/L) and washed human red cells A+ at 2.5% haematocrit (0.3% parasitaemia). Serial drug dilutions of eleven 3-fold dilution steps covering a range from 100 to 0.002 μg/mL were prepared. The 96-well plates were incubated in a humidified atmosphere at 37 °C; 4% CO2, 3% O2, 93% N2. After 48 h, 0.05 mL of ^3H-hypoxanthine (= 0.5 μCi) was added to each well of the plate. The plates were incubated for a further 24 h under the same conditions. The plates were then harvested with a Betaplate™ cell harvester (Wallac, Zurich, Switzerland), and the red blood cells transferred onto a glass fibre filter then washed with distilled water. The dried filters were inserted into a plastic foil with 10 mL of scintillation fluid, and counted in a Betaplate™ liquid scintillation counter (Wallac, Zurich, Switzerland). IC50 values were calculated from sigmoidal inhibition curves by linear regression using Microsoft Excel. Chloroquine (Sigma C6628) was used as control.

P. falciparum NF54 [2] = details: NF54 strain, sensitive to chloroquine and pyrimethamine, cited from earlier work
L-6 cells [3] = details: cited from earlier work
P. falciparum K1 [4] = test system: P. falciparum K1; set-up: method as in PMID 25746816; details: K1 strain, resistant to chloroquine, sulfadoxine and pyrimethamine; ref [12]; cited from earlier work
[5] = test system: T. brucei rhodesiense STIB900; set-up: method as in PMID 25746816; details: ref [12]; cited from earlier work
L-6 cells [6] = test: In vitro cytotoxicity with L-6 cells; details: read-out: Cytotoxicity L-6 Cells IC50; rat skeletal myoblasts; average of four determinations
Experimental: as §1
(§3) Assays were performed in 96-well microtiter plates, each well containing 0.1 mL of RPMI 1640 medium supplemented with 1% L-glutamine (200 mM) and 10% fetal bovine serum, and 4000 L-6 cells (a primary cell line derived from rat skeletal myoblasts, ATCC CRL-1458™). Serial drug dilutions of eleven 3-fold dilution steps covering a range from 100 to 0.002 μg/mL were prepared. After 70 h of incubation the plates were inspected under an inverted microscope to assure growth of the controls and sterile conditions. Then, 0.01 mL resazurin solution (resazurin, 12.5 mg in 100 mL double-distilled water) was added to each well and the plates incubated for another 2 h. The plates were read with a Spectramax Gemini XS microplate fluorometer (Molecular Devices Cooperation, Sunnyvale, CA, USA) using an excitation wave length of 536 nm and an emission wave length of 588 nm. The IC50 values were calculated by linear regression from the sigmoidal dose inhibition curves using SoftmaxPro software (Molecular Devices Cooperation, Sunnyvale, CA, USA). Podophyllotoxin (Sigma P4405) was used as control.

in vitro = details: rat
Experimental: as §1, §3

P. falciparum NF54 [7] = test: In vitro microplate 3H-hypoxanthine incorporation assay against P. falciparum NF54; format: cell-based; details: Plasmodium falciparum; NF54 strain, sensitive to chloroquine and pyrimethamine; average of four determinations; read-out: P. falciparum NF54 IC50
Experimental: as §1, §2

[8] = test system: T. brucei rhodesiense STIB900; test: In vitro microplate resazurin assay against T. brucei rhodesiense; format: cell-based; details: Trypanosoma brucei; bloodstream forms; average of four determinations; read-out: T. brucei rhodesiense STIB900 IC50
Experimental: as §1
Minimum essential medium (50 µL) supplemented with 25 mM HEPES, 1g/L additional glucose, 1% MEM non-essential amino acids (100×), 0.2 mM 2-mercaptoethanol, 1mM Na-pyruvate and 15% heat-inactivated horse serum was added to each well of a 96-well microtiter plate. Serial drug dilutions of eleven 3-fold dilution steps covering a range from 100 to 0.002 μg/mL were prepared. Then 4 × 10^3 bloodstream forms of T. b. rhodesiense STIB 900 in 50 µL was added to each well and the plate incubated at 37 °C under a 5 % CO2 atmosphere for 70 h. Next, 10 µL resazurin solution (resazurin, 12.5 mg in 100 mL double-distilled water) was added to each well and incubation continued for a further 2–4 h. Then the plates were read with a Spectramax Gemini XS microplate fluorometer (Molecular Devices Cooperation, Sunnyvale, CA, USA) using an excitation wave length of 536 nm and an emission wave length of 588 nm. Data were analyzed with the graphic programme Softmax Pro (Molecular Devices Cooperation, Sunnyvale, CA, USA), which calculated IC50 values by linear regression and 4-parameter logistic regression from the sigmoidal dose inhibition curves. Melarsoprol (Arsobal Sanofi-Aventis, received from WHO) was used as control.

[9] = Plasmodium falciparum, K1, K1 strain

| Molecule | IC50 (P. falciparum K1 [1]; [9]) | IC50 (P. falciparum K1 [4]) | IC50 [5] | IC50 (L-6 cells [3]) | IC50 at 72 h (in vitro) | IC50 (P. falciparum NF54 [7]) | IC50 [8] | also measured |
| --- | --- | --- | --- | --- | --- | --- | --- | --- |
| CCc1nc(N)nc(N)c1-c1ccc(Cl)cc1 [PYR, pyrimethamine, reference compound] | 10000 nM | – | – | – | – | – | – | IC50 (P. falciparum NF54 [2]; ref [24]): 17 nM |
| 1-(pyrrolidin-1-yl)-3-azabicyclononane [Compound 4] | – | 95 nM | 1000 nM | – | – | – | – | IC50 (L-6 cells [3]; read-out: Cytotoxicity L-6 Cells IC50, rat skeletal myoblasts, ref [12]): 72900 nM; IC50 (P. falciparum NF54 [2]; ref [13]): 72 nM |
| 5-(piperidin-1-yl)-2-azabicyclo-nonane [Compound 1] | – | 640 nM | 6570 nM | 89700 nM | – | – | – | – |
| COc1cc([C@@H]2c3cc4c(cc3[C@H](O)[C@H]3COC(=O)[C@H]23)OCO4)cc(OC)c1OC [POD, podophyllotoxin, reference compound] | – | – | – | – | – | – | – | IC50 (L-6 cells [6]): 12 nM |
| 5-(pyrrolidin-1-yl)-2-azabicyclononane [Compound 2] | – | 560 nM | 1160 nM | 120000 nM | – | – | – | – |
| Nc1cc(N2CC3C(c4ccccc4)CC(N4CCCC4)(CC3c3ccccc3)C2)nc(N)n1 (racemic) [Compound 12] | 172 ± 51 nM | – | – | – | 11100 ± 836 nM | 33 ± 16 nM | 946 ± 374 nM | – |
| Cc1cc(N2CC3C(c4ccccc4)CC(N4CCCCC4)(CC3c3ccccc3)C2)nc(N)n1 (racemic) [Compound 7] | 51 to 94 nM | – | – | – | 8000 ± 1890 nM | 24 ± 4 nM | 573 ± 132 nM | IC50 (P. falciparum K1 [1]; K1 strain): 51 ± 24 nM |
| Nc1cc(N2CC3C(c4ccccc4)CC(N4CCCCC4)(CC3c3ccccc3)C2)nc(N)n1 (racemic) [Compound 11] | 87 ± 2 nM | – | – | – | 4330 ± 235 nM | 23 ± 1 nM | 201 ± 39 nM | – |
| 1-(piperidin-1-yl)-3-azabicyclononane [Compound 3] | – | 750 nM | 2020 nM | 122000 nM | – | – | – | – |
